Source: ChEMBL document CHEMBL3745645, “Synthesis, in vitro antitumor activity, dihydrofolate reductase inhibition, DNA intercalation and structure-activity relationship studies of 1,3,5-triazine analogues” (Bioorg Med Chem Lett, 2016)
Calls of active or inactive are those of the source. The rule behind the calls is not given here.

Legend:
Assay type in all cases: functional
A498 = test: Cytotoxicity against human A498 cells at 10 uM after 48 hrs by SRB assay; conditions: A498, 48 h, read-out: GI
[1] = Cytotoxicity against human HCC2998 cells at 10 uM after 48 hrs by SRB assay; conditions: HCC 2998, 48 h, read-out: GI
[2] = Cytotoxicity against human HCT15 cells at 10 uM after 48 hrs by SRB assay; conditions: HCT-15, 48 h, read-out: GI
MDA-MB-468 = test: Cytotoxicity against human MDA-MB-468 cells at 10 uM after 48 hrs by SRB assay; conditions: MDA-MB-468, 48 h, read-out: GI
[3] = Cytotoxicity against human DU145 cells at 10 uM after 48 hrs by SRB assay; conditions: DU-145, 48 h, read-out: GI
[4] = Cytotoxicity against human SW620 cells at 10 uM after 48 hrs by SRB assay; conditions: SW-620, 48 h, read-out: GI
[5] = Cytotoxicity against human IGROV1 cells at 10 uM after 48 hrs by SRB assay; conditions: IGROV-1, 48 h, read-out: GI
A549 = test: Cytotoxicity against human A549 cells at 10 uM after 48 hrs by SRB assay; conditions: A549, 48 h, read-out: GI
[6] = Cytotoxicity against human Hs 578T cells at 10 uM after 48 hrs by SRB assay; conditions: read-out: GI
[7] = Cytotoxicity against human OVCAR3 cells at 10 uM after 48 hrs by SRB assay; conditions: OVCAR-3, 48 h, read-out: GI
[8] = Cytotoxicity against human OVCAR4 cells at 10 uM after 48 hrs by SRB assay; conditions: OVCAR-4, 48 h, read-out: GI
SK-MEL-5 = test: Cytotoxicity against human SK-MEL-5 cells at 10 uM after 48 hrs by SRB assay; conditions: SK-MEL-5, 48 h, read-out: GI
[9] = Cytotoxicity against human TK10 cells at 10 uM after 48 hrs by SRB assay; conditions: TK-10, 48 h, read-out: GI
[10] = Cytotoxicity against human HL-60(TB) cells at 10 uM after 48 hrs by SRB assay; conditions: HL-60, 48 h, read-out: GI
SN12C = test: Cytotoxicity against human SN12C cells at 10 uM after 48 hrs by SRB assay; conditions: read-out: GI
MDA-MB-435 = test: Cytotoxicity against human MDA-MB-435 cells at 10 uM after 48 hrs by SRB assay; conditions: MDA-MB-435, 48 h, read-out: GI
K562 = test: Cytotoxicity against human K562 cells at 10 uM after 48 hrs by SRB assay; conditions: K562, 48 h, read-out: GI
[11] = Cytotoxicity against human OVCAR5 cells at 10 uM after 48 hrs by SRB assay; conditions: OVCAR-5, 48 h, read-out: GI
NCI-H522 = test: Cytotoxicity against human NCI-H522 cells at 10 uM after 48 hrs by SRB assay
[12] = Cytotoxicity against human RPMI8226 cells at 10 uM after 48 hrs by SRB assay; conditions: RPMI-8226, 48 h, read-out: GI
NCI-H460 = test: Cytotoxicity against human NCI-H460 cells at 10 uM after 48 hrs by SRB assay; conditions: NCI-H460, 48 h, read-out: GI
[13] = Cytotoxicity against human RXF393 cells at 10 uM after 48 hrs by SRB assay; conditions: RXF 393, 48 h, read-out: GI
[14] = Cytotoxicity against human SKOV3 cells at 10 uM after 48 hrs by SRB assay; conditions: SK-OV-3, 48 h, read-out: GI
[15] = Cytotoxicity against human UACC257 cells at 10 uM after 48 hrs by SRB assay; conditions: UACC-257, 48 h, read-out: GI
[16] = Cytotoxicity against human UO31 cells at 10 uM after 48 hrs by SRB assay; conditions: UO-31, 48 h, read-out: GI
T47D = test: Cytotoxicity against human T47D cells at 10 uM after 48 hrs by SRB assay; conditions: read-out: GI
KM12 = test: Cytotoxicity against human KM12 cells at 10 uM after 48 hrs by SRB assay; conditions: KM12, 48 h, read-out: GI
[17] = Cytotoxicity against human HOP92 cells at 10 uM after 48 hrs by SRB assay; conditions: HOP-92, 48 h, read-out: GI
SK-MEL-2 = test: Cytotoxicity against human SK-MEL-2 cells at 10 uM after 48 hrs by SRB assay
COLO 205 = test: Cytotoxicity against human COLO205 cells at 10 uM after 48 hrs by SRB assay
[18] = Cytotoxicity against human PC3 cells at 10 uM after 48 hrs by SRB assay; conditions: PC-3, 48 h, read-out: GI
786-0 = test: Cytotoxicity against human 786-0 cells at 10 uM after 48 hrs by SRB assay; conditions: 786-0, 48 h, read-out: GI
CCRF-CEM = test: Cytotoxicity against human CCRF-CEM cells at 10 uM after 48 hrs by SRB assay; conditions: read-out: GI
[19] = Cytotoxicity against human BT549 cells at 10 uM after 48 hrs by SRB assay; conditions: BT-549, 48 h, read-out: GI
[20] = Cytotoxicity against human Caki1 cells at 10 uM after 48 hrs by SRB assay; conditions: CAKI-1, 48 h, read-out: GI
[21] = Cytotoxicity against human SNB19 cells at 10 uM after 48 hrs by SRB assay; conditions: SNB-19, 48 h, read-out: GI
[22] = Cytotoxicity against human SF539 cells at 10 uM after 48 hrs by SRB assay; conditions: SF-539, 48 h, read-out: GI
[23] = Cytotoxicity against human MOLT4 cells at 10 uM after 48 hrs by SRB assay; conditions: MOLT-4, 48 h, read-out: GI
[24] = Cytotoxicity against human HOP62 cells at 10 uM after 48 hrs by SRB assay; conditions: HOP-62, 48 h, read-out: GI
[25] = Cytotoxicity against human SNB75 cells at 10 uM after 48 hrs by SRB assay; conditions: SNB-75, 48 h, read-out: GI
[26] = Cytotoxicity against human UACC62 cells at 10 uM after 48 hrs by SRB assay; conditions: UACC-62, 48 h, read-out: GI
[27] = Cytotoxicity against human OVCAR8 cells at 10 uM after 48 hrs by SRB assay; conditions: OVCAR-8, 48 h, read-out: GI
ACHN = test: Cytotoxicity against human ACHN cells at 10 uM after 48 hrs by SRB assay; conditions: read-out: GI
Malme-3M = test: Cytotoxicity against human MALME-3M cells at 10 uM after 48 hrs by SRB assay
HT-29 = test: Cytotoxicity against human HT-29 cells at 10 uM after 48 hrs by SRB assay; conditions: HT-29, 48 h, read-out: GI
SR = test: Cytotoxicity against human SR cells at 10 uM after 48 hrs by SRB assay; conditions: read-out: GI
MCF7 = test: Cytotoxicity against human MCF7 cells at 10 uM after 48 hrs by SRB assay; conditions: MCF7, 48 h, read-out: GI
[28] = Cytotoxicity against human NCI-ADR-RES cells at 10 uM after 48 hrs by SRB assay; conditions: read-out: GI
M14 = test: Cytotoxicity against human M14 cells at 10 uM after 48 hrs by SRB assay
SK-MEL-28 = test: Cytotoxicity against human SK-MEL-28 cells at 10 uM after 48 hrs by SRB assay
[29] = Cytotoxicity against human LOXIMVI cells at 10 uM after 48 hrs by SRB assay; conditions: LOX IMVI, read-out: GI
MDA-MB-231 = test: Cytotoxicity against human MDA-MB-231 cells at 10 uM after 48 hrs by SRB assay; conditions: MDA-MB-231, 48 h, read-out: GI
NCI-H226 = test: Cytotoxicity against human NCI-H226 cells at 10 uM after 48 hrs by SRB assay; conditions: NCI-H226, 48 h, read-out: GI
[30] = Cytotoxicity against human SF295 cells at 10 uM after 48 hrs by SRB assay; conditions: SF-295, 48 h, read-out: GI
[31] = Cytotoxicity against human HCT116 cells at 10 uM after 48 hrs by SRB assay; conditions: HCT-116, 48 h, read-out: GI
[32] = Cytotoxicity against human SF268 cells at 10 uM after 48 hrs by SRB assay; conditions: SF-268, 48 h, read-out: GI

Cc1nc2cc(Nc3nc(Cl)nc(Nc4ccc(F)cc4)n3)ccc2n1Cc1ccccc1
inhibition of growth at 10 µM (A498): 30.6%
inhibition of growth at 10 µM [1]: 5.54%
inhibition of growth at 10 µM [2]: 27.9%
inhibition of growth at 10 µM (MDA-MB-468): 23.8%
inhibition of growth at 10 µM [3]: 36%
inhibition of growth at 10 µM [4]: 15.2%
inhibition of growth at 10 µM [5]: 17%
inhibition of growth at 10 µM (A549): 13.3%
inhibition of growth at 10 µM [6]: 20.5%
inhibition of growth at 10 µM [7]: 5.75%
inhibition of growth at 10 µM [8]: 14.2%
inhibition of growth at 10 µM (SK-MEL-5): 7.59%
inhibition of growth at 10 µM [9]: 41.5%
inhibition of growth at 10 µM [10]: 46.8%
inhibition of growth at 10 µM (SN12C): 22.1%
inhibition of growth at 10 µM (MDA-MB-435): 4.44%
inhibition of growth at 10 µM (K562): 14.8%
inhibition of growth at 10 µM [11]: 3.73%
growth inhibition (GI) (NCI-H522): Active
inhibition of growth at 10 µM [12]: 84.7%
inhibition of growth at 10 µM (NCI-H460): 12%
inhibition of growth at 10 µM [13]: 22.9%
inhibition of growth at 10 µM [14]: 4.12%
inhibition of growth at 10 µM [15]: 10.3%
inhibition of growth at 10 µM [16]: 19.3%
inhibition of growth at 10 µM (T47D): 43%
inhibition of growth at 10 µM (KM12): 30.8%
inhibition of growth at 10 µM [17]: 49.3%
growth inhibition (GI) (SK-MEL-2): inactive
growth inhibition (GI) (COLO 205): inactive
inhibition of growth at 10 µM [18]: 21.2%
inhibition of growth at 10 µM (786-0): 67%
inhibition of growth at 10 µM (CCRF-CEM): 21.5%
inhibition of growth at 10 µM [19]: 9.39%
inhibition of growth at 10 µM [20]: 12.3%
inhibition of growth at 10 µM [21]: 7.64%
inhibition of growth at 10 µM [22]: 29.8%
inhibition of growth at 10 µM [23]: 9.41%
inhibition of growth at 10 µM [24]: 11.6%
inhibition of growth at 10 µM [25]: 10%
inhibition of growth at 10 µM [26]: 17.6%
inhibition of growth at 10 µM [27]: 18.5%
inhibition of growth at 10 µM (ACHN): 63.8%
growth inhibition (GI) (Malme-3M): inactive
inhibition of growth at 10 µM (HT-29): 5.46%
inhibition of growth at 10 µM (SR): 42.5%
inhibition of growth at 10 µM (MCF7): 38.5%
inhibition of growth at 10 µM [28]: 4.36%
growth inhibition (GI) (M14): inactive
growth inhibition (GI) (SK-MEL-28): inactive
inhibition of growth at 10 µM [29]: 56.7%
inhibition of growth at 10 µM (MDA-MB-231): 17.9%
inhibition of growth at 10 µM (NCI-H226): 19.6%
inhibition of growth at 10 µM [30]: 3.61%
inhibition of growth at 10 µM [31]: 96.1%
inhibition of growth at 10 µM [32]: 8.93%
